The values below come from patent US6071884A, “Pharmaceutical compositions and therapeutic methods” (Kirin Beer Kabushiki Kaisha, priority 1992, dated 2000).

In data set [1] the test system is blood platelets. Description: Blood-platelet-increasing effect upon normal mouse. It counts as in vivo, mouse (BDF1). The note with it: normal mice; 6 days after 0.1 mg/kg i.v.; mean ± SD; vehicle per series 58.2, 63.0, 71.1. In a few lines: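 Female BDF1 mice, 6 weeks old (5 per group), received test sample at 0.1 mg/kg into the caudal vein. Six days later, fundus-vein blood was taken and platelets counted on a multi-channel hemocytometer, compared against vehicle-treated animals.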

Data set [2] in a line: Life-span-increasing effect on irradiation of a lethal dose of radiation. It counts as in vivo, mouse (BDF1). The note with it: 10 mice/group, 9 Gy X-ray, 0.1 mg/kg i.v. days 0, 4, 8. As to the method:
Pharmacological Test 4: Life-Span-Increasing Effect on Irradiation of a Lethal Dose of Radiation
An experiment was carried out by using 6 week old female BDF1 mice purchased from Japan SLC Co., Ltd., with 10 mice made one group.
The entire bodies of the entire body of the mice were irradiated with 9 Gy of X-rays by using a Hitachi X-ray irradiator (MBR-1520R), and the day on which the X-ray was irradiated was referred to as "day 0".

The subject of data set [3] is marrow cells (mononuclear cell fraction). Description: Proliferation-stimulating effect on marrow cell of mouse (3H-TdR uptake). The data set is classed as cell-based, mouse (BALB/c). The settings on record: percentage of control, 72 h; for activity at 0.1 µg/mL: 10^-1 μg/ml; for activity at 0.01 µg/mL: 10^-2 μg/ml; for activity at 0.001 µg/mL: 10^-3 μg/ml. In a few lines:
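Mononuclear marrow cell fraction from 7-week-old female BALB/c mouse thigh bone, 1.5×10^6 cells/ml in 10% FCS RPMI 1640, cultured with test sample 72 h at 37° C. ³H-thymidine (0.5 μCi/well) then added for 8 h; nuclear ³H-TdR uptake counted by liquid scintillation.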

For data set [4], the system named is blood platelets. The data set can be described thus: Thrombocytopenia-inhibiting effect in X-ray-irradiated mice. The note with it: 10 days after 5 Gy X-ray; 0.1 mg/kg i.v. within 2 h; mean ± SD; vehicle per series 10.3, 6.8, 6.7; non-treatment 68.2, 96.9, 73.0. It counts as in vivo, mouse (BDF1). In a few lines:
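Female BDF1 mice, 6 weeks old, six per group, given 5 Gy whole-body X-ray, then 0.1 mg/kg i.v. via tail vein within 2 hours. Platelets counted by hemocytometer in fundus-vein blood 10 days later; untreated and vehicle groups run alongside.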

Another data set in a line: Acute toxicity. The data set is classed as in vivo. The note with it: 7 days. The method, then: Test Example 2: Acute Toxicity
0.1, 1.0 or 10 mg/kg of Compound 5 or 33 was intravenously administered to Crj:CD rats (male, 5 weeks old), 6 rats in one group. 7 days after the administration, a toxicity test was carried out.

The test system of data set [5] is marrow cells (mononuclear cell fraction). The data set can be described thus: Effect on marrow cell of monkey (3H-TdR uptake). The note with it: Primates, 96 h, percentage of control, 4 days. It counts as cell-based, croo monkey. As to the method:
Pharmacological Test 2: Effect on Marrow Cell of Monkey
Marrow cells were prepared from the humerus of a croo monkey, and an MNF obtained by fractionation using a Lymphoprep (Nycomed Pharma AS, Oslo, Norway) was used in the following experiment.
The MNF was suspended in an RPMI 1640 medium added with 10% blood plasma of a croo monkey to make its concentration 1×10^6 cells/ml.
10 μl/well of a sample with a predetermined concentration and 100 μl/well of the above-prepared MNF were placed on a round-bottomed 96 well plate, and incubated under the conditions of 37° C. and 5% CO2 for 4 days. Thereafter, 0.5 μCi/well of ^3 H-TdR was added. After 6 hours, the cells were harvested, and the amount of the ^3 H-TdR taken in the nuclei was measured by a liquid scintillation counter.

Data set [6] concerns mononuclear cell fraction of human umbilical cord blood. The data set can be described thus: Proliferation-stimulating effect on mononuclear cell fraction of human umbilical cord blood (3H-TdR uptake). It counts as cell-based. The note with it: 96 h, percentage of control, 4 days; for activity at 0.1 µg/mL: 10^-1 μg/ml; for activity at 0.01 µg/mL: 10^-2 μg/ml; for activity at 0.001 µg/mL: 10^-3 μg/ml. From the text:
Pharmacological Test 3: Proliferation-Stimulating Effect on Mononuclear Cell Fraction of Human Umbilical Cord Blood
It is extremely difficult to obtain human marrow cells. In addition, human umbilical cord blood contains stem cells (Nakahata, T. & Ogwa, M., J. Clin. Inveet. 70, 1324-1328 (1982)), so that it can be a good source of hematopoietic stem/progenitor cell supply (H. E. Broxneyer et al, Proc. Natl. Acad. Sci. USA, 86, 3828-3832 (1989)). For these reasons, the effect on human was examined by using, instead of human marrow cells, human umbilical cord blood.
To human umbilical cord blood was added an equal amount of RPMI 1640. This was placed on a Lymphoprep and centrifugal. The mononuclear cell fraction (MNF) thus obtained was used in the following experiment.
The concentration of the MNF was adjusted to 1×10^6 cells/ml by using an RPMI 1640 added with 10% auto-blood plasma as a culture medium. 10 μl/well of a sample with a predetermined concentration and 100 μl/well of the above-prepared MNF were placed on a round-bottomed 96 well plate and incubated under the conditions of 37° C. and 5% CO2 for 4 days. Thereafter, 0.5 μCi/well of ^3 H-TdR was added. After 8 hour incubation, the cells were harvested, and the amount of the 3H-TdR taken in the nuclei was measured by a liquid scintillation counter.

Where [7] appears, read: day 10, controls per series 10, 10, 10, 10, 10, 8.
[8] abbreviates: day 15, controls per series 8, 9, 5, 5, 7, 1.
The mark [9] stands for this setting: day 20, controls per series 4, 5, 1, 2, 3, 0.
Setting [10] is: day 25, controls per series 3, 3, 0, 0, 2, 0.
[11] abbreviates: day 30, controls per series 1, 1, 0, 0, 0, 0.

`CCCCCCCCCCCCCCC[C@@H](O)[C@H](CO[C@H]1O[C@H](CO)[C@H](O)[C@H](O)[C@H]1O)NC(=O)CCCCCCCCCCCCC` [Compound 5, (2S,3R)-1-(α-D-galactopyranosyloxy)-2-tetradecanoylamino-3-octadecanol]: the “Number of Blood Platelets” value in the data set on blood platelets [1] was 106.0 ± 9.0 × 10^4 /μl; with blood platelets [4] it was 20.3 ± 4.5 × 10^4 /μl. The “Number of Surviving Mice” value in data set [2] (setting [7]) amounted to 10 mice; in data set [2] (setting [8]) it was 9 mice; in data set [2] (setting [9]), 9 mice; in data set [2] (setting [10]), 9 mice; in data set [2] (setting [11]) it was 9 mice; in data set [2] (day 35, all controls 0) it was 9 mice. In data set [2] (day 40, all controls 0), the “Number of Surviving Mice” value was found to be 9 mice. In addition, in data set [3], the activity at 0.1 µg/mL came to 377%. Further, in data set [3], the activity at 0.01 µg/mL amounted to 261%. For the same compound, in data set [3], the activity at 0.001 µg/mL was 234%. Besides, the death of rats result in “Acute toxicity” (10 mg/kg i.v.) is recorded as “the rats did not die”. The post-mortem examination entry in “Acute toxicity” (i.v. 0.1, 1.0 or 10 mg/kg) is on record as “no abnormality was found”.

In the case of `CCCCCCCCCCCCCCCCCCCCCCCC[C@@H](O)C(=O)N[C@@H](CO[C@H]1O[C@H](CO)[C@H](O)[C@H](O)[C@H]1O)[C@H](O)[C@H](O)CCCCCCCCCCCCCC` [Compound 25], the “Number of Blood Platelets” value in the data set with blood platelets [1] is given as 124.1 ± 14.7 × 10^4 /μl; with blood platelets [4], 15.6 ± 5.3 × 10^4 /μl. The “Number of Surviving Mice” value stood at 10 mice in data set [2] (setting [7]); 10 mice in data set [2] (setting [8]); 7 mice in data set [2] (setting [9]); 7 mice in data set [2] (setting [10]); 5 mice in data set [2] (setting [11]); 5 mice in data set [2] (day 35, all controls 0). Besides, the “Number of Surviving Mice” value in data set [2] (day 40, all controls 0) is 5 mice. For the same compound, the activity at 0.1 µg/mL in data set [3] is 331%; in data set [5] (10^-1 μg/ml), 184%; in data set [6] it was 336%. Besides, the activity at 0.01 µg/mL in data set [3] was 161%; in data set [5] (10^-2 μg/ml) it was 186%; in data set [6] it was 319%. In addition, the activity at 0.001 µg/mL came out at 153% in data set [3] and 229% in data set [6].

`CCCCCCCCCCCCCCCCCCCCCC[C@H](O)C(=O)N[C@@H](CO[C@H]1O[C@H](CO)[C@H](O)[C@H](O)[C@H]1O)[C@H](O)[C@H](O)CCCCCCCCCCCCC` [Compound 28, (2S,3S,4R)-1-(α-D-galactopyranosyloxy)-2-[(S)-2-hydroxytetracosanoylaminol]-3,4-heptadecanediol]: the results for the “Number of Blood Platelets” value in the data set on blood platelets [1] and with blood platelets [4] were 103.6 ± 8.8 × 10^4 /μl and 20.4 ± 4.5 × 10^4 /μl, respectively. Besides, the “Number of Surviving Mice” value in data set [2] (setting [7]) worked out at 10 mice; in data set [2] (setting [8]) it was 10 mice; in data set [2] (setting [9]) it was 10 mice; in data set [2] (setting [10]), 8 mice; in data set [2] (setting [11]), 8 mice; in data set [2] (day 35, all controls 0), 8 mice. In addition, the “Number of Surviving Mice” value in data set [2] (day 40, all controls 0) is on record as 8 mice. In addition, the values for the activity at 0.1 µg/mL in data set [3] and in data set [6] were 192% and 356%, respectively. Besides, the activity at 0.01 µg/mL in data set [3] was 170%; in data set [6] it was 331%. The values for the activity at 0.001 µg/mL in data set [3] and in data set [6] were 130% and 182%, respectively.

For `CCCCCCCCCCCCCCCCCCCCCCCCCCCC(=O)N[C@@H](CO[C@H]1O[C@H](CO)[C@H](O)[C@H](O)[C@H]1O)[C@H](O)[C@H](O)CCCCCCCCCCCCC` [Compound 34, (2S,3S,4R)-1-(α-D-galactopyranosyloxy)-2-octacosanoylamino-3,4-heptadecanediol], the “Number of Blood Platelets” value with blood platelets [1] is reported as 110.1 ± 9.0 × 10^4 /μl; in the data set with blood platelets [4], 24.4 ± 5.6 × 10^4 /μl. The “Number of Surviving Mice” value in data set [2] (setting [7]) was 10 mice; in data set [2] (setting [8]), 10 mice; in data set [2] (setting [9]), 10 mice; in data set [2] (setting [10]), 9 mice; in data set [2] (setting [11]), 9 mice; in data set [2] (day 35, all controls 0), 9 mice. Also, the “Number of Surviving Mice” value in data set [2] (day 40, all controls 0) stood at 9 mice. The activity at 0.1 µg/mL was found to be 272% in data set [3] and 467% in data set [6]. Besides, the activity at 0.01 µg/mL in data set [3] was 183%; in data set [6], 258%. For the same compound, the activity at 0.001 µg/mL turned out to be 150% in data set [3] and 291% in data set [6].
